Source: patent US20090215729A1, “MICROPARTICLE COMPOSITIONS TO MODIFY CANCER PROMOTING CELLS” (priority 2008, published 2009)

Test system: 4t1-luc cancer cells
Assay: syngeneic 4t1 mouse model of breast cancer, tumor volume growth
Assay type: in vivo
Settings: Balb/c mice, tail vein injection 100 microliters, six administrations, twice a week starting day 1 after tumor challenge, caliper measurements, relative to PBS control
Experimental: In vivo testing was done with a syngeneic 4t1 model of breast cancer in immuno-competent Balb/c mice. […] Briefly, primary tumors were established in mammary tissue of 6 week old Balb/c mice by injection of 106 4t1-12B cells subcutaneously under the nipple. The mice were kept in standard housing and with a normal diet. Each group of mice (6-10 per group, 20 g±10% body weight) were injected (100 microliters) 2 times per week through the tail vein for a period of 3 weeks, starting either on day one or day six after the tumor challenge. Clodronate solution was dissolved in PBS and given intravenously starting on day one after tumor challenge. Control mice were injected intravenously through the tail vein with PBS. Tumor growth was measured in a blinded fashion with a caliper each week and tumor volumes were calculated using the measured dimensions. Body weights were recorded weekly, and mice were sacrificed on day 34.

Question: What does the source list for `O=P(O)(O)C(Cl)(Cl)P(=O)(O)O` [Clodronate (5.6 mg/mL) in PBS, clodronate]?
Answer: tumor volume growth of 4t1-luc cancer cells: did not inhibit the growth of 4 μl tumors relative to PBS control; tumor volume growth of 4t1-luc cancer cells (listed as clodronate solution): unable to inhibit growth of 4 μl tumors as effectively as clodronate-hydroxyapatite
